Test results reported in patent US20180282662A1, “Process” (GIVAUDAN SA, priority 2014, published 2018).
Where two headings read alike, the source gives them in different places.

Columns and labels:
[1] = Susceptibility to enzymatic degradation to the benzoic acid derivative; format: in vitro ADME
primates = conditions: cited from earlier work
[2] = rats; cited from earlier work
[3] = dogs; cited from earlier work
[4] = test system: reproductive organs of male rats; conditions: rat, in vivo; cited from earlier work
[5] = test system: reproductive organs of dogs; conditions: dog, in vivo; cited from earlier work
mice = conditions: mouse, in vivo; cited from earlier work
guinea-pigs = conditions: guinea pig, in vivo; cited from earlier work
glucose synthesis = conditions: in vitro; cited from earlier work
fatty acid synthesis = conditions: in vitro; cited from earlier work
male rats = conditions: cited from earlier work

With `Cc1cc(CC(C)C)ccc1CCC=O` [(I), 3-(4-Isobutyl-2-methylphenyl)propanal] the “enzymatic degradation to its benzoic acid derivative” value [1] was “not susceptible”.

In the case of `CC(C=O)Cc1ccc(C(C)(C)C)cc1` (centres unmarked) [Lilial, 3-(4-tert-butylphenyl)-2-methylpropanal], the toxic effects (primates) is listed as “No effects”, the “enzymatic degradation to tert-butyl benzoic acid (t-BBA)” value [2] is listed as “enzymatically degraded” and the “enzymatic degradation to tert-butyl benzoic acid (t-BBA)” value [3] is listed as “enzymatically degraded”. For the same compound, the “toxic effects on the reproductive organs” value [4] was “toxic effects”, the “toxic effects on the reproductive organs” value [5] was “toxic effects” and the toxic effects (mice) was “No effects”. For the same compound, the toxic effects (guinea-pigs) was “No effects”.

For `CC(C)(C)c1ccc(C(=O)O)cc1` [tert-butyl benzoic acid], the “inhibition of glucose synthesis” value (glucose synthesis) is given as “inhibit”, the “inhibition of fatty acid synthesis” value (fatty acid synthesis) is given as “inhibit” and the testicular effects (male rats) is given as “testicular effects”.
